Consider eleven compounds from ChEMBL document CHEMBL4184178, “Identification of potent lysophosphatidic acid receptor 5 (LPA5) antagonists as potential analgesic agents” (Bioorg Med Chem, 2018).

The source made the active and inactive calls. The rule behind the calls is not given here.

In data set [1] the target is Lysophosphatidic acid receptor 5 (Rattus norvegicus, UniProt D4ADR1). The data set can be described thus: Antagonist activity at rat LPA5 receptor expressed in CHO cells assessed as inhibition of LPA-induced cAMP accumulation after 30 mins by Lance Ultra assay. The data set is classed as cell-based.
Lysophosphatidic acid receptor 5, sequence (D4ADR1 whole entry): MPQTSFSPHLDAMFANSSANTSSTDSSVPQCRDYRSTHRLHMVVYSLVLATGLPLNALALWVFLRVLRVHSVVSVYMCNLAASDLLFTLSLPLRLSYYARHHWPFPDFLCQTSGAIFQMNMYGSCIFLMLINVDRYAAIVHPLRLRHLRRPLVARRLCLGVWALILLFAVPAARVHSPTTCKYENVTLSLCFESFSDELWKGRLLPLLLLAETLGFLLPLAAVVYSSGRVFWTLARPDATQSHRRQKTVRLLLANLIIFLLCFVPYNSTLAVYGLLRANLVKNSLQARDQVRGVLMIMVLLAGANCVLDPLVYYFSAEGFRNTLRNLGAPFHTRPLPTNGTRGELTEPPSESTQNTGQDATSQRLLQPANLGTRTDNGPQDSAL
Data set [2] can be described thus: Plasma concentration in rat at 60 mg/kg, ip measured after 0.5 hrs by LC-MS analysis. It is filed as ADME, organism-based.
The nature of data set [3]: Drug uptake in rat brain at 60 mg/kg, ip measured after 0.5 hrs by LC-MS analysis. It is filed as ADME, organism-based. As to conditions: read-out: Drug uptake.
Data set [4] in a line: Brain to plasma partition coefficient, Kp of the compound in rat at 60 mg/kg, ip measured after 0.5 hrs by LC-MS analysis. It is filed as ADME, organism-based.
The subject of data set [5] is Rattus norvegicus. The data set can be described thus: Analgesic effect in rat chronic constriction injury model assessed as reduction in mechanical allodynia at 60 mg/kg, ip by Von Frey test. It is filed as functional, organism-based.
In data set [6] the test system is Rattus norvegicus. Kind of data set: Analgesic effect in rat chronic constriction injury model assessed as reduction in mechanical allodynia at 10 mg/kg, ip by Von Frey test. It is filed as functional, organism-based.

Take `COc1cc2c(C(=O)N3CCCCCC3)cn(-c3ccc(F)cc3)c(=O)c2cc1OC`: the IC50 in data set [1] is above 3000 nM.
Same read-out and setting: the result for `CCN1CCc2ccc(-n3cc(C(=O)N4CCCCCC4)c4cc(OC)c(OC)cc4c3=O)cc21` reads 110 nM.
The same measure, in the same setting: the result for `COc1cc2c(C(=O)N3CCCCCC3)cn(-c3ccc(C(N)=O)cc3)c(=O)c2cc1OC` reads above 30000 nM.
On the same count and under the same terms, with `COc1cc2c(C(=O)N3CCCCCC3)cn(-c3ccc(C)c(C)c3)c(=O)c2cc1OC` the figure was 720 nM.
Take `CCN1CCc2ccc(-n3cc(C(=O)N4CCC(F)CC4)c4cc(OC)c(OC)cc4c3=O)cc21`: in data set [1], the IC50 was found to be 120 nM. The concentration at 0.5 h came out at 9.06 µM in data set [2] and 1.22 µM in data set [3]. The concentration ratio (Kp) at 0.5 h in data set [4] is 0.13. In data set [5], the outcome was Active. Also, the result in data set [6] was inactive.
Take `CCOc1ccc(-n2cc(C(=O)N3CCCCCC3)c3cc(OC)c(OC)cc3c2=O)cc1`: the IC50 in data set [1] came out at 1800 nM.
`COc1cc2c(C(=O)N3CCCCCC3)cn(C(C)C)c(=O)c2cc1OC`: the IC50 in data set [1] was above 30000 nM.
The same measure, in the same setting: the result for `CCOc1ccc(-n2cc(C(=O)N3CCC(F)CC3)c3cc(OC)c(OC)cc3c2=O)cc1` reads 750 nM.
Take `COc1cc2c(C(=O)N3CCCCCC3)cn(-c3cccc(N(C)C)c3)c(=O)c2cc1OC`: the IC50 in data set [1] was determined as 130 nM.
The same measure, in the same setting: the result for `CCCCCCN(C)C(=O)c1cn(-c2ccc(OCC)cc2)c(=O)c2cc(OC)c(OC)cc12` reads above 10000 nM.
Turning to `CCc1ccc(-n2cc(C(=O)N3CCCCCC3)c3cc(OC)c(OC)cc3c2=O)cc1`, the IC50 in data set [1] was determined as 570 nM.
